Results: US11000033B2, “Ketone or oxime compound, and herbicide” (NISSAN CHEMICAL CORPORATION, priority 2014, dated 2021)

Key:
Assay type in all cases: in vivo
[1] = tested on: Echinochloa oryzacola Vasing.; experiment: Test Example 1: herbicidal activity, application before weed generation in submerged conditions (symbol A); settings: application herbicide amount 320 g/ha
Procedure, shortened: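 Compound emulsion was diluted to a set herbicide amount and applied to the water surface on the sowing day, into submerged (4 cm) alluvial-soil pots sown with mixed weed seeds and transplanted 2.5-leaf rice. Pots were held in a 25–30 °C greenhouse, and weeds were scored 0–5 by herbicidal ratio after 3 weeks.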

transplanted rice plant = experiment: Test Example 1: effect on crop, application before weed generation in submerged conditions (symbol a); settings: application herbicide amount 320 g/ha
Procedure, shortened: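 Alluvial soil pots flooded to 4 cm water, sown with Echinochloa oryzacola, Scirpus juncoides and Monochoria vaginalis, then transplanted with 2.5 leaf stage rice seedlings; pre-emergence application. Greenhouse 25° C. to 30° C.; scored 0–5 by herbicidal ratio 3 weeks after application.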

[2] = tested on: Echinochloa oryzacola Vasing.; experiment: Test Example 2: herbicidal activity, application during weed generation in submerged conditions (symbol A); settings: Table 23; application herbicide amount 320 g/ha; grade 0-5 by criteria of Test Example 1
Procedure, shortened: (§1)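 Steps: fill pots with alluvial soil; add water to 4 cm depth; co-sow the three weeds; grow at 25° C. to 30° C. under glass; at 1–2 leaves, dose the floodwater with diluted emulsion; rate damage visually after 3 weeks.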

Monochoria vaginalis = experiment: Test Example 2: herbicidal activity, application during weed generation in submerged conditions (symbol C); settings: Table 23; application herbicide amount 320 g/ha; grade 0-5 by criteria of Test Example 1
Procedure, shortened: as §1

[3] = tested on: directly sowed rice plant; experiment: Test Example 3: effect on crop by foliage application, Wagner pot (symbol b); settings: application herbicide amount 320 g/ha
Procedure, shortened: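 Wagner pot (1/10000 are), alluvial soil, submerged 0.1–0.5 cm; sown E. crus-galli var. crus-galli, L. chinensis, C. difformis, rice; greenhouse 25–30 °C.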

Setaria viridis = experiment: Test Example 4: herbicidal effect by soil treatment (symbol G); settings: 320 g/ha
Procedure, shortened: (§2)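 Seeds were sown in sterilized diluvial soil, covered with about 1.5 cm of soil, and the soil surface was sprayed with a water-diluted emulsion of the compound at a predetermined rate. Plants grew in a greenhouse at 25° C. to 30° C.; effects were scored visually 3 weeks after application.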

Avena fatua = experiment: Test Example 4: herbicidal effect by soil treatment (symbol I); settings: 320 g/ha
Procedure, shortened: as §2

rapeseed = experiment: Test Example 4: effect on crop by soil treatment (symbol g); settings: 320 g/ha
Procedure, shortened: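 Grown at 25° C. to 30° C. in a greenhouse, the crops came from seed sown spot-wise in sterilized diluvial soil under roughly 1.5 cm of covering soil.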

Digitaria ciliaris = experiment: Test Example 5: herbicidal effect by foliage application, plastic box (symbol F); settings: 320 g/ha, 3 weeks after application
Procedure, shortened: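 Visual herbicidal score, taken three weeks post-application, of seedlings sprayed on the foliage with water-diluted emulsion at a predetermined amount; plants were 14 days old, greenhouse-raised at 25° C. to 30° C.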

corn = experiment: Test Example 5: effect on crop by foliage application, plastic box (symbol c); settings: 320 g/ha, 3 weeks after application
Procedure, shortened: (§3)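 Box culture: sterile diluvial soil, seeds spot-sown, ~1.5 cm cover, raised under glass at 25–30° C.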

wheat = experiment: Test Example 5: effect on crop by foliage application, plastic box (symbol e); settings: 320 g/ha, 3 weeks after application
Procedure, shortened: as §3

Compound	Herbicidal effect grade, A: Echinochloa oryzacola Vasing. [1]	Effect grade on crop, a: transplanted rice plant (transplanted rice plant)	Herbicidal effect grade, A: Echinochloa oryzacola Vasing. [2]	Herbicidal effect grade, C: Monochoria vaginalis (Monochoria vaginalis)	effect on crop b (directly sowed rice plant), grade 0-5 [3]	G: Setaria viridis, herbicidal effect grade (Setaria viridis)	I: Avena fatua, herbicidal effect grade (Avena fatua)	g: rapeseed, effect grade on crop (rapeseed)	F: Digitaria ciliaris, herbicidal effect (criteria 0-5) (Digitaria ciliaris)	c: corn, effect on crop (criteria 0-5) (corn)	e: wheat, effect on crop (criteria 0-5) (wheat)	F: Digitaria ciliaris, herbicidal effect grade (Digitaria ciliaris)	c: corn, effect on crop grade (corn)	e: wheat, effect on crop grade (wheat)
CON=C(C)CC1CC(OC(=O)N2CCN(C)CC2)=C(c2c(C)cc(C)cc2C)C1=O (centres unmarked) [1-152]	4 (Herbicidal ratio of 70% or higher and lower than 90%)	2 (Herbicidal ratio of 20% or higher and lower than 40%)	2 (Herbicidal ratio of 20% or higher and lower than 40%)	0 (Herbicidal ratio of 5% or lower (almost no effect))	5 (Herbicidal ratio of 90% or more (almost completely withered))	0 (Herbicidal ratio of 5% or lower (almost no effect))	0 (Herbicidal ratio of 5% or lower (almost no effect))	0 (Herbicidal ratio of 5% or lower (almost no effect))	5 (Herbicidal ratio of 90% or more (almost completely withered))	2 (Herbicidal ratio of 20% or higher and lower than 40%)	3 (Herbicidal ratio of 40% or higher and lower than 70%)	–	–	–
C=CCN(CC=C)C(=O)OC1=C(c2c(C)cc(C)cc2C)C(=O)C(CC(C)=NOC)C1 (centres unmarked) [1-153]	5 (Herbicidal ratio of 90% or more (almost completely withered))	4 (Herbicidal ratio of 70% or higher and lower than 90%)	4 (Herbicidal ratio of 70% or higher and lower than 90%)	0 (Herbicidal ratio of 5% or lower (almost no effect))	5 (Herbicidal ratio of 90% or more (almost completely withered))	1 (Herbicidal ratio of 5% or higher and lower than 20%)	0 (Herbicidal ratio of 5% or lower (almost no effect))	0 (Herbicidal ratio of 5% or lower (almost no effect))	5 (Herbicidal ratio of 90% or more (almost completely withered))	3 (Herbicidal ratio of 40% or higher and lower than 70%)	5 (Herbicidal ratio of 90% or more (almost completely withered))	–	–	–
CON=C(C)CC1CC(OC(=O)c2ccccc2C(F)(F)F)=C(c2c(C)cc(C)cc2C)C1=O (centres unmarked) [1-154]	5 (Herbicidal ratio of 90% or more (almost completely withered))	5 (Herbicidal ratio of 90% or more (almost completely withered))	5 (Herbicidal ratio of 90% or more (almost completely withered))	4 (Herbicidal ratio of 70% or higher and lower than 90%)	5 (Herbicidal ratio of 90% or more (almost completely withered))	5 (Herbicidal ratio of 90% or more (almost completely withered))	0 (Herbicidal ratio of 5% or lower (almost no effect))	4 (Herbicidal ratio of 70% or higher and lower than 90%)	5 (Herbicidal ratio of 90% or more (almost completely withered))	3 (Herbicidal ratio of 40% or higher and lower than 70%)	5 (Herbicidal ratio of 90% or more (almost completely withered))	–	–	–
CON=C(C)CC1CC(OC(=O)c2ccccc2OC(F)(F)F)=C(c2c(C)cc(C)cc2C)C1=O (centres unmarked) [1-155]	5 (Herbicidal ratio of 90% or more (almost completely withered))	5 (Herbicidal ratio of 90% or more (almost completely withered))	5 (Herbicidal ratio of 90% or more (almost completely withered))	3 (Herbicidal ratio of 40% or higher and lower than 70%)	5 (Herbicidal ratio of 90% or more (almost completely withered))	5 (Herbicidal ratio of 90% or more (almost completely withered))	4 (Herbicidal ratio of 70% or higher and lower than 90%)	4 (Herbicidal ratio of 70% or higher and lower than 90%)	5 (Herbicidal ratio of 90% or more (almost completely withered))	4 (Herbicidal ratio of 70% or higher and lower than 90%)	5 (Herbicidal ratio of 90% or more (almost completely withered))	–	–	–
CON=C(C)CC1CC(OC(=O)Cc2ccc(OC)cc2)=C(c2c(C)cc(C)cc2C)C1=O (centres unmarked) [1-156]	5 (Herbicidal ratio of 90% or more (almost completely withered))	5 (Herbicidal ratio of 90% or more (almost completely withered))	5 (Herbicidal ratio of 90% or more (almost completely withered))	3 (Herbicidal ratio of 40% or higher and lower than 70%)	5 (Herbicidal ratio of 90% or more (almost completely withered))	5 (Herbicidal ratio of 90% or more (almost completely withered))	4 (Herbicidal ratio of 70% or higher and lower than 90%)	4 (Herbicidal ratio of 70% or higher and lower than 90%)	–	–	–	5 (Herbicidal ratio of 90% or more (almost completely withered))	4 (Herbicidal ratio of 70% or higher and lower than 90%)	5 (Herbicidal ratio of 90% or more (almost completely withered))
CON=C(C)CC1CC(OC(=O)N(C)c2ccccc2)=C(c2c(C)cc(C)cc2C)C1=O (centres unmarked) [1-159]	5 (Herbicidal ratio of 90% or more (almost completely withered))	1 (Herbicidal ratio of 5% or higher and lower than 20%)	4 (Herbicidal ratio of 70% or higher and lower than 90%)	3 (Herbicidal ratio of 40% or higher and lower than 70%)	5 (Herbicidal ratio of 90% or more (almost completely withered))	3 (Herbicidal ratio of 40% or higher and lower than 70%)	0 (Herbicidal ratio of 5% or lower (almost no effect))	0 (Herbicidal ratio of 5% or lower (almost no effect))	–	–	–	5 (Herbicidal ratio of 90% or more (almost completely withered))	0 (Herbicidal ratio of 5% or lower (almost no effect))	2 (Herbicidal ratio of 20% or higher and lower than 40%)
CON=C(C)CC1CC(OC(=O)c2c(Cl)nn(C)c2Cl)=C(c2c(C)cc(C)cc2C)C1=O (centres unmarked) [1-160]	5 (Herbicidal ratio of 90% or more (almost completely withered))	5 (Herbicidal ratio of 90% or more (almost completely withered))	5 (Herbicidal ratio of 90% or more (almost completely withered))	4 (Herbicidal ratio of 70% or higher and lower than 90%)	5 (Herbicidal ratio of 90% or more (almost completely withered))	5 (Herbicidal ratio of 90% or more (almost completely withered))	0 (Herbicidal ratio of 5% or lower (almost no effect))	4 (Herbicidal ratio of 70% or higher and lower than 90%)	–	–	–	5 (Herbicidal ratio of 90% or more (almost completely withered))	4 (Herbicidal ratio of 70% or higher and lower than 90%)	5 (Herbicidal ratio of 90% or more (almost completely withered))
